Like-named read-outs stand apart in the source and are kept apart here.
What was measured:
Type in all cases: in vivo
[1] = tested on: Green Peach Aphid ("GPA") (Myzus persicae), wingless adult and nymph stages; experiment: Bioassay on green peach aphid (GPA), foliar spray on infested cabbage seedlings; conditions: Myzus persicae, foliar, 72 h
How it was run: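 Values are corrected % control, 100*(X−Y)/X, from live aphid counts per plant under a microscope, treated versus solvent-check plants. Four infested seedlings (20-50 GPA each) per treatment were sprayed to runoff and kept three days near 25° C at ambient RH.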

[2] = tested on: Diamondback Moth (Plutella xylostella) ("DBM"); experiment: Bioassay on Diamondback Moth (DBM), Example D, procedure of Example A; conditions: 0.00005 ppm, read-out: DBM % Control (or Mortality) Rating
Experimental: (§1) Example D: Bioassays on Cabbage Looper (Trichoplusia ni) (“CL”) and Diamondback Moth (Plutella xylostella) (“DBM”)
(§2) Certain molecules disclosed in this document were tested against CL and DBM (diamondback moth, Plutella xylostella) using procedures described above for BAW and CL (Example A). The results are reported as in the “CL & DBM Rating Table” at concentrations of 0.0005 and 0.00005 ppm, respectively, and are given Table D.

[3] = tested on: Beet Armyworm (Spodoptera exigua) ("BAW"), second instar larvae; experiment: Bioassay on beet armyworm (BAW), 128-well diet tray assay; conditions: Spodoptera exigua
How it was run: (§3)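 Covered trays were held at 25° C. under a 14:10 light-dark cycle for five to seven days. Percent mortality was then scored in each well, and activity across eight wells was averaged.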

[4] = tested on: Cabbage Looper (Trichoplusia ni) ("CL"); experiment: Bioassay on Cabbage Looper (CL), Example D, procedure of Example A; conditions: read-out: CL % Control (or Mortality) Rating
Experimental: as §1, §2

[5] = tested on: Cabbage Looper (Trichoplusia ni) ("CL"), second instar larvae; experiment: Bioassay on cabbage looper (CL), 128-well diet tray assay; conditions: Trichoplusia ni
How it was run: as §3

[6] = tested on: Yellow Fever Mosquito "YFM" (Aedes aegypti), about 1 day-old larvae; experiment: Bioassay on yellow fever mosquito (YFM), 96-well plate larval assay
How it was run: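 Compounds from 4000 ppm DMSO master stocks were diluted with 90:10 water:acetone, and 15 μL per well was dispensed, six replicate plates per master. Wells were infested with about 1 day-old larvae in liver-powder water, held 3 days at room temperature under non-evaporative lids, then scored for mortality.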

[7] = read-out: GPA (Biological Results, rating)
[8] = read-out: BAW (Biological Results, rating)
[9] = read-out: CL (Biological Results, rating)

Row | SMILES | pest or weed control at 200 µg/mL [1, 7] | mortality at 5e-05 ppm [2] | pest or weed control at 50 µg/cm2 [3, 8] | mortality at 0.0005 ppm [4] | pest or weed control at 50 µg/cm2 [5, 9] | YFM (Biological Results, rating) ([6]; Yellow Fever Mosquito (Aedes aegypti) larvae, scored on mortality after 3 days, C = Not Tested) | pest or weed control at 200 µg/mL ([1]; read-out: GPA rating) | pest or weed control at 50 µg/cm2 ([3]; read-out: BAW rating) | pest or weed control at 50 µg/cm2 ([5]; read-out: CL rating) | YFM rating ([6]; Table ABC, species YFM, mortality scored after 3 days, C = not tested, D = no activity noticed)
1 | Cc1ccc(C(F)(F)F)c(N2C(=O)CS/C2=N\C(=O)NCC(F)c2ccc(-c3ncn(-c4ccc(OC(F)(F)F)cc4)n3)cc2)c1 (stereo not shown) [Compound H2] | 80 to 100% | 51 to 100% | 50 to 100% | 51 to 100% | 50 to 100% | – | – | – | – | –
2 | Cc1ccc(C(F)(F)F)c(N2C(=O)CS/C2=N\C(=O)Nc2ccc(-c3ncn(-c4ccc(OC(F)(F)F)cc4)n3)cc2)c1 [Compound H20] | 0 to 80% | 51 to 100% | 50 to 100% | 16 to 50% | 50 to 100% | – | – | – | – | –
3 | Cc1ccc(C(F)(F)F)c(N2C(=O)CS/C2=N\C(=O)NCCc2ccc(-c3ncn(-c4ccc(OC(F)(F)F)cc4)n3)cc2)c1 [Compound H1] | 0 to 80% | 16 to 50% | 50 to 100% | 16 to 50% | 50 to 100% | A (80-100) | – | – | – | –
4 | Cc1ccc(C)c(N2C(=O)CS/C2=N\C(=O)Nc2ccc(-c3ncn(-c4ccc(OC(F)(F)F)cc4)n3)cc2)c1 [Compound C2] | 0 to 80% | 0 to 15% | 50 to 100% | 0 to 15% | 50 to 100% | – | – | – | – | –
5 | Cc1cc(-c2ncn(-c3ccc(OC(F)(F)F)cc3)n2)ccc1NC(=O)/N=C1\SCC(=O)N1c1ccccc1COCC(F)(F)F [Compound J653, (Z)-1-(2-Methyl-4-(1-(4-(trifluoromethoxy)phenyl)-1H-1,2,4-triazol-3-yl)phenyl)-3-(4-oxo-3-(2-((2,2,2-trifluoroethoxy)methyl)phenyl)thiazolidin-2-ylidene)urea] | – | – | – | – | – | – | 0 to 80% | 50 to 100% | 50 to 100% | A (80-100)
